{"source": "patent US20220016241A1", "about": "“COMPOSITIONS AND METHODS FOR REDUCING ANTIGEN-SPECIFIC IMMUNOGENICITY” (The Research Foundation for The State University of New York, priority 2013, published 2022)", "key": {"[1]": {"system": "anti-Ova antibody titers", "experiment": "Effect of OPLS on immunogenicity of ovalbumin after SC administration", "format": "in vivo, SW mice", "settings": "5 mg OPLS with 1 μg Ova s.c.", "protocol": "Methods: 14 SW mice between 6 and 8 weeks of age were divided into 2 groups: group one received 1 μg OVA SC in the abdominal region. Group two received 1 μg OVA/5 mg OPLS SC in the abdominal region. This treatment was given one day 1, 8, 10 and 12. Three days after the last injection the animals were sacrificed. Blood was centrifuged at 7500 rpm for 5 min at 4° C. Plasma was then removed and stored at -80° C. until analysis Titers values were obtained using an anti-Ova IgG […] analysis kit as per the manufacturers instruction (alphadiagnostic international). Statistics was done on the arithmetic mean of the log transformed data, graphs are reported as geometric means. Non-responders were given the value of the plate specific factor for uniformity."}, "[2]": {"system": "anti-IgG antibody titers", "experiment": "Effect of OPLS on human IgG immunogenicity", "format": "in vivo, mice", "settings": "0.4 mg OPLS with 1 μg human IgG s.c., days 1, 8, 10, 12", "protocol": "Materials and Methods: 8 animals were used for this pilot study, 4 animals were injected with Human-IgG (Sigma) alone (1 μg) or with Human IgG plus OPLS (1 μg human IgG plus 0.4 mg OPLS). The study was done with 4 injections over 2 weeks period as follows: day 1, day 8, day 10 and day 12 followed by a 3 days washout period. ELISA was done to measure total titers. Briefly, Nunc-Maxisorb 96-well plates were coated overnight at 4° C. with 50 μl/well of 2.5 μg/ml Human IgG. Plates were then washed and blocked with 1% bovine serum albumin (blocking buffer). 50 μl/well of various dilutions of the sample were added to the plate and incubated at room temperature for 2 h. Plasma samples from animals exposes to a sham treatment (buffer only) served as controls. The plates were then washed and incubated with 50 μl of goat anti-mouse anti-body-HRP conjugate at a 1:50000 dilution in blocking buffer at room temperature for 1 h. Color was developed for 20 min with 100 μl of TMB solution. 100 μl of 2 N H2SO4 was used to stop the reaction. Optical density at […] was measured using a plate reader. Non-responders were given the value of the plate specific factor for uniformity.\nIn this pilot study, animals were injected with Human-IgG (Sigma) alone (1 μg) or with OPLS […]. […]"}, "[3]": {"system": "anti-FVIII total titers", "experiment": "OPLS-FVIII sequential administration study", "format": "in vivo, Hemophilia A mice", "settings": "5 mg OPLS then 1 μg FVIII 5 minutes later, same site, 4 weekly sc; 4 weekly iv rechallenge", "protocol": "To determine if OPLS can exert its immunomodulatory effects on the immune response to FVIII when the two are administered in separate injections temporally spaced apart, at the same injection site the following experiments were carried out. Hemophilia A mice (n=6 animals/group) were immunized with 4 weekly sc injections as follows. The control group of animals received one injection of sterile TRIS buffer (100 μL volume) then, after a 5 minute wait, they received a second injection of 1 μg FVIII in sterile TRIS (100 μL volume) at the same injection site. The second group of mice received one injection of 5 mg OPLS (100 μL volume) then, after a 5 minute wait, they received a second injection of 1 μg FVIII in sterile TRIS (100 μL volume) at the same injection site. After a two-week rest period (week 6) all of the mice were then rechallenged with 4 weekly intravenous injections of 1 μg of FVIII in 100 μL sterile TRIS […]. Mice were sacrificed after two weeks and a terminal blood sample was collected using cardiac puncture. Analysis was done by ELISA for total titers. […] This administration method was able to induce a hypo-responsiveness towards FVIII."}, "[4]": {"system": "anti-FVIII antibody titers", "experiment": "FVIII-specific tolerance with OPLS, OPDS or Dex, rechallenge with free FVIII (FIG. 11)", "settings": "s.c. co-administration with FVIII, then s.c. free FVIII"}, "[5]": {"system": "IL-12p70", "experiment": "Cytokine profile of BMDCs in vitro, IL-12p70 ELISA", "format": "cell-based, HA mice", "settings": "1 μg/ml FVIII with 50 mM OPLS, 48 hours, n=4", "protocol": "Generation of bone marrow derived dendritic cells (BMDC): Bone marrow was isolated from 6 to 8 week old naïve HA. Briefly, bone marrow was cultured in RPMI media supplemented with […] (low endotoxin), 2-mercaptoethanol, Pen/Strep and […] GMCSF. Media was changed on days 3, 6 and 8 of culture and DCs were used on day 9. BMDC are then harvested and used as needed. To verify the differentiation of bone marrow cells into DCs, CD11c surface expression was confirmed by flow cytometry using anti-CD11c-FITC antibody with appropriate isotope controls.\nEffects of OPLS on cytokine profile of BMDCs in vitro: The effects of OPLS on cytokine secretion by dendritic cells were investigated. On day 9 BMDCs, generated as above, were treated with FVIII as an antigen in the presence of increasing dose of OPLS. Changes in production of pro-inflammatory cytokines TNF-α and IL12p70 as well as the regulatory cytokine TGF-β were monitored as a function of dose. BMDCs were exposed to 1 μg/ml FVIII with increasing dose of OPLS (0, 0.5, 1, 10, 25, 50 mM). 1 M stock of OPLS was prepared by adding the appropriate amount of OPLS directly to RPMI media, and pH was adjusted using sterile 3N and 1N NaOH. […] TGF-β, TNF-α and IL-12p70 concentrations were determined using standard ELISA (R&D System Inc. Minneapolis, Minn., USA or Invitrogen […], Calif.)."}, "[6]": {"experiment": "Plasma chemistry markers after 21 daily doses of OPLS", "format": "in vivo, rhesus macaques", "settings": "21 daily doses of 25 mg/kg, days 0, 8, 22", "protocol": "FIG. 24. Effect of 21 daily doses of 25 mg/kg OPLS on plasma chemistry markers of rhesus macaques. Samples were drawn from the animals at baseline (day 0), at an intermediate time point during treatment (day 8) and 1 day after the termination of dosing (day 22)."}}, "data": [{"molecule": "N[C@@H](COP(=O)(O)O)C(=O)O", "note": "[OPLS, O-Phospho-L-Serine]", "values": [{"measurement": "Anti-Ova antibody titers vs Ova alone", "setting": "[1]", "value": "lower"}, {"measurement": "Anti-IgG antibody titers vs IgG alone", "setting": "[2]", "value": "lower"}, {"measurement": "Total anti-FVIII titers after rechallenge vs free FVIII", "setting": "[3]", "value": "significantly lower"}, {"measurement": "FVIII-specific hypo-responsiveness upon rechallenge", "setting": "[4]", "value": "hypo-responsiveness"}, {"measurement": "IL-12p70 production by BMDC", "setting": "[5]", "value": "total shut down"}, {"measurement": "Impact on renal and hepatic function (plasma chemistry markers)", "setting": "[6]", "value": "no impact"}]}]}
